Source: ChEMBL document CHEMBL1141452, “Advances in development of dopaminergic aporphinoids” (J Med Chem, 2007)

What was measured:
D(2) dopamine receptor = D(2) dopamine receptor (Rattus norvegicus, UniProt P61169); test: Displacement of [3H]raclopride from rat dopamine D2 receptor
[1] = target: 5-hydroxytryptamine receptor 7 (Rattus norvegicus) (UniProt P32305); test: Displacement of [3H]5-HT from rat 5-HT7 receptor
D(1A) dopamine receptor = D(1A) dopamine receptor (Rattus norvegicus, UniProt P18901); test: Displacement of [3H]SCH-23390 from rat dopamine D1 receptor
Sequence of D(1A) dopamine receptor (P18901 whole entry): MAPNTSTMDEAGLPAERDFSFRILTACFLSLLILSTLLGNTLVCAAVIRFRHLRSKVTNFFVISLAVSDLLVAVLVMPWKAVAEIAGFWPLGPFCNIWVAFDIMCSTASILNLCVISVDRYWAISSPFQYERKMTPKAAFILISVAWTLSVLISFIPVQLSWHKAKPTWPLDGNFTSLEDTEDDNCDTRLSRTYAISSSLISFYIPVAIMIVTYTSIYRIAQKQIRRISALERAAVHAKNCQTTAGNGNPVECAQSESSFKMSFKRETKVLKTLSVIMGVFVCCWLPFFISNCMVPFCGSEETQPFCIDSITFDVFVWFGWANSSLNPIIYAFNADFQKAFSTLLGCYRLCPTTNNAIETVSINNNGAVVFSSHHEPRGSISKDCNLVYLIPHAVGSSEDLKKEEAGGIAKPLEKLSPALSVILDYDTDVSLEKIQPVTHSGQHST

[2] = Inhibition of rat midbrain dopaminergic neuron firing; type: functional; conditions: read-out: ID50 (the source's name)
[3] = target: T1, 5-hydroxytryptamine receptor 1A (Rattus norvegicus, UniProt P19327); test: Displacement of [3H]8-OH-DPAT from rat 5HT1A receptor
T1 sequence (P19327 whole entry): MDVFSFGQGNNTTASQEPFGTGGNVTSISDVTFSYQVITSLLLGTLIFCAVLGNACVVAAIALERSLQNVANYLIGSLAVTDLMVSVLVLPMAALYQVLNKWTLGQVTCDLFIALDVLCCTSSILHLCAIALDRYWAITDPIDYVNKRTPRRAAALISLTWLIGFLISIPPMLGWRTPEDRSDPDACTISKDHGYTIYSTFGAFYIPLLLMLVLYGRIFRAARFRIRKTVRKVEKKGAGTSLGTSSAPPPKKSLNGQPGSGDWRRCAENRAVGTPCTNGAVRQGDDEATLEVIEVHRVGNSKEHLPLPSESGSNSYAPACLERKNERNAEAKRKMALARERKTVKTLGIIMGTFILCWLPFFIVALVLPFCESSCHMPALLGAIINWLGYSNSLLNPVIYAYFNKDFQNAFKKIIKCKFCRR

[4] = target: Sodium-dependent dopamine transporter (Rattus norvegicus, UniProt P23977); test: Displacement of [3H]DA from rat DAT
Sequence of Sodium-dependent dopamine transporter (P23977 whole entry): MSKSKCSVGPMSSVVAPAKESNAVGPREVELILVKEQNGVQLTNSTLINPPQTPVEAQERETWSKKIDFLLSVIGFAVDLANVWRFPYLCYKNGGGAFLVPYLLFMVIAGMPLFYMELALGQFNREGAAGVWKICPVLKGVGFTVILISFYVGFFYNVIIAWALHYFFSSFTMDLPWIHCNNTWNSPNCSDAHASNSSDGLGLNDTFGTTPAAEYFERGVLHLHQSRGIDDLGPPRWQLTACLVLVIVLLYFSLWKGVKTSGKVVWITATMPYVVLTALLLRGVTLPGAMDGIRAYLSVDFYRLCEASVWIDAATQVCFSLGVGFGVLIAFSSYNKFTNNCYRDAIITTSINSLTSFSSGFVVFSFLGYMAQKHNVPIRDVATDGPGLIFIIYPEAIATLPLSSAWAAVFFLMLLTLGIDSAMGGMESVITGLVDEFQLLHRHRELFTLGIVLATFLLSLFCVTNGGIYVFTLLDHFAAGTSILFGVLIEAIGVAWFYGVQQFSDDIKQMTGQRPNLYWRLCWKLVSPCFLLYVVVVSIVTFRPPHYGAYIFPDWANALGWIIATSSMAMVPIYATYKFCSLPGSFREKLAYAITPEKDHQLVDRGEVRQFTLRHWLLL

Sequence of 5-hydroxytryptamine receptor 7 (Rattus norvegicus) (P32305 whole entry, looked up): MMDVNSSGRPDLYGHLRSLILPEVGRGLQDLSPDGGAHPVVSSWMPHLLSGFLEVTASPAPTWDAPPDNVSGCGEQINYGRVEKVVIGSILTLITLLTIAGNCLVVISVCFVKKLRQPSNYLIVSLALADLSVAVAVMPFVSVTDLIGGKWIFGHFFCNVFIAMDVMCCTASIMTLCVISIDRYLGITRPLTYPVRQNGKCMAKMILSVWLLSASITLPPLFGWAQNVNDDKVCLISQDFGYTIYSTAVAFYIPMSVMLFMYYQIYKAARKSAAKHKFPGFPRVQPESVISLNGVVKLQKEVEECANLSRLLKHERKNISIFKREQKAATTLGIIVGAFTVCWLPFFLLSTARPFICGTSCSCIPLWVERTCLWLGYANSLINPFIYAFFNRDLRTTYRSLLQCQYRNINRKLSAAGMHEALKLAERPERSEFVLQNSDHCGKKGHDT
Sequence of D(2) dopamine receptor (P61169 whole entry): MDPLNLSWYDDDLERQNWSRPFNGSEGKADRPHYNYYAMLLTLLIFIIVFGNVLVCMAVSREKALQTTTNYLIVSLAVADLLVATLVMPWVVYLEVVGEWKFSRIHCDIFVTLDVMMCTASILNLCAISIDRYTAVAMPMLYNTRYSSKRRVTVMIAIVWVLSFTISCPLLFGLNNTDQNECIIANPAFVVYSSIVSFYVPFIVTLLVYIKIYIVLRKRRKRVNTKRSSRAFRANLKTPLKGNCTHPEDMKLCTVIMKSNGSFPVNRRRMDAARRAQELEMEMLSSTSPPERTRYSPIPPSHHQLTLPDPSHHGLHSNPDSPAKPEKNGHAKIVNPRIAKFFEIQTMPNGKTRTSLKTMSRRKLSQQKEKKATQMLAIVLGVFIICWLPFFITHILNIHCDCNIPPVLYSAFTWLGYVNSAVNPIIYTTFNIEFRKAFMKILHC

SMILES | Ki (D(2) dopamine receptor) | Ki (D(1A) dopamine receptor) | other results
CCCN1CCc2cccc3c2[C@H]1Cc1ccc(C)c(O)c1-3 | 250 nM | 2000 nM | 
COc1cc2c(cc1O)C[C@H]1c3c(ccc(O)c3O2)CCN1C [BREOGANINE] |  |  | IC50 (D(1A) dopamine receptor): 100 nM; IC50 (D(2) dopamine receptor): 200 nM
COc1cc2c(cc1O)Oc1c(O)ccc3c1[C@H](C2)N(C)CC3 [CELTISINE] |  |  | IC50 (D(1A) dopamine receptor): 60 nM; IC50 (D(2) dopamine receptor): 30 nM
CN1CCc2cccc3c2[C@@H]1Cc1ccc(O)c(O)c1-3 [(S)APOMORPHINE] |  |  | ED50 [2]: 8.4 µmol/kg
O=C1c2ccccc2-c2c3c(cc4ccnc1c24)OCO3 [LIRIODENINE] |  |  | IC50 (D(1A) dopamine receptor): 75000 nM; IC50 (D(2) dopamine receptor): 59000 nM
CCCCCCCCCCCCCCCCCCCCCC(=O)Oc1cccc2c1-c1cccc3c1[C@@H](C2)N(CCC)CC3 | 180 nM | > 10000 nM | 
CCc1cccc2c1-c1cccc3c1[C@@H](C2)N(C)CC3 | 79 nM |  | 
COc1c(O)c2c3c(c1OC)CCN(C)C3Cc1ccccc1-2 (stereo unspecified) |  |  | IC50 (D(1A) dopamine receptor): 17200 nM; IC50 [4]: 40000 nM; IC50 (D(2) dopamine receptor): 2800 nM
CCCN1CCc2cc(O)cc3c2[C@H]1Cc1ccc(O)c(O)c1-3 |  |  | IC50 (D(2) dopamine receptor): 0.07 nM
COc1ccc2c(c1O)Oc1c(OC)ccc3c1[C@H](C2)N(C)CC3 [SARCOCAPNIDINE] |  |  | IC50 (D(1A) dopamine receptor): 50000 nM; IC50 (D(2) dopamine receptor): 2000 nM
Cc1ccc2c(c1O)-c1cccc3c1[C@@H](C2)NCC3 | > 10000 nM | > 20000 nM | 
Oc1cc2c3c(c1O)Cc1ccccc1CC3NCC2 (stereo unspecified) | 8000 nM | 10800 nM | 
CCCN1CCc2cc(O)cc3c2C1Cc1ccccc1C3 (stereo unspecified) | 40000 nM | 30000 nM | 
CCCN1CCc2cc(SC)cc3c2[C@H]1Cc1ccc(O)c(O)c1-3 | 3.7 nM |  | 
COc1c2c3c(c4c1OCO4)-c1ccccc1C[C@H]3NCC2 [NORSTEPHALAGINE] |  |  | IC50 (D(1A) dopamine receptor): 4800 nM; IC50 (D(2) dopamine receptor): 27000 nM
COc1cc2c3c(c1OC)-c1c(ccc(O)c1O)CC3N(C)CC2 (stereo unspecified) [SUAVEOLINE] |  |  | IC50 (D(1A) dopamine receptor): 63000 nM; IC50 [4]: > 100000 nM
Oc1cc2c3c(c1)Cc1ccccc1CC3NCC2 (stereo unspecified) | 20000 nM | 3700 nM | 
CCN1CCc2cc(O)cc3c2C1Cc1ccccc1C3 (stereo unspecified) | 15000 nM | > 20000 nM | 
Oc1cccc2c1-c1cccc3c1[C@@H](C2)NCC3 | 1000 nM |  | 
CCCCC(=O)Oc1cccc2c1-c1cccc3c1[C@@H](C2)N(CCC)CC3 | 34 nM | > 20000 nM | 
COc1cc2c3c(c1OC)Cc1ccccc1CC3NCC2 (stereo unspecified) | 13000 nM | 4300 nM | 
Cc1cccc(C#N)c1-c1cccc2c1-c1cccc3c1[C@@H](C2)N(C)CC3 (stereo in doubt; 58) |  |  | Ki [1]: 3.8 nM
CCN1CCc2cc(OC)cc3c2C1Cc1ccccc1C3 (stereo unspecified) | 9700 nM | 6600 nM | 
COc1ccc2c(c1O)Oc1c(O)ccc3c1[C@H](C2)N(C)CC3 [CLAVICULINE] |  |  | IC50 (D(1A) dopamine receptor): 1000 nM; IC50 [4]: > 100000 nM; IC50 (D(2) dopamine receptor): 1500 nM
CCCN1CCc2cc(OC)cc3c2C1Cc1ccccc1C3 (stereo unspecified) | 14000 nM | 11600 nM | 
CCCN1CCc2cc(O)cc3c2C1Cc1ccccc1O3 (stereo unspecified) | > 10000 nM | > 10000 nM | 

SMILES | Ki (D(2) dopamine receptor) | Ki (D(1A) dopamine receptor) | other results
COc1cc2c(cc1O)C[C@H]1c3c(c(I)c(O)c(OC)c3-2)CCN1C | 68 nM | 2 nM | 
CCCN1CCc2cc(OC)c(OC)c3c2C1Cc1ccccc1C3 (stereo unspecified) | 14000 nM | > 70000 nM | 
COc1c(O)c2c3c(nccc3c1OC)C(C)(C)c1cc(O)ccc1-2 [MELOSMINE] |  |  | IC50 (D(1A) dopamine receptor): 12500 nM; IC50 [4]: 24600 nM; IC50 (D(2) dopamine receptor): 80000 nM
COc1cc2c(cc1OC)-c1c(OC)c(OC)c(Br)c3c1[C@H](C2)N(C)CC3 | 2400 nM | 520 nM | 
COc1c(O)c2c3c(c1OC)CCN[C@@H]3Cc1ccccc1-2 [ISOPILINE] |  |  | IC50 (D(1A) dopamine receptor): 9800 nM; IC50 (D(2) dopamine receptor): 30000 nM
CCCN1CCc2cc(OC)cc3c2[C@H]1Cc1ccc(O)c(O)c1-3 |  |  | IC50 (D(2) dopamine receptor): 10.2 nM
COc1cc2c(cc1OC)-c1c(OC)c(O)cc3c1[C@H](C2)N(C)CC3 [PREDICENTRINE] | 760 nM | 240 nM | 
CCCN1CCc2cccc3c2[C@H]1Cc1cccc(OC(C)=O)c1-3 |  | > 10000 nM | 
CN1CCc2ccc3c(=O)[nH]c4cccc5c4c3c2[C@H]1C5 | 6100 nM |  | Ki [3]: 370 nM; Ki [1]: 340 nM
CCCN1CCc2cc(F)cc3c2[C@H]1Cc1cccc(OC=O)c1-3 | 39 nM | 800 nM | 
COc1cccc2c1-c1c3c(cc4c1C(C2)N(C)CC4)OCO3 (stereo unspecified) |  |  | IC50 (D(1A) dopamine receptor): > 100000 nM; IC50 [4]: 32000 nM; IC50 (D(2) dopamine receptor): > 100000 nM
c1ccc2c(c1)C[C@H]1NCCc3cc4c(c-2c31)OCO4 [ANONAINE] |  |  | IC50 (D(1A) dopamine receptor): 68000 nM; IC50 (D(2) dopamine receptor): 19000 nM
COc1cc2c3c(c1)Cc1ccccc1CC3NCC2 (stereo unspecified) | 19000 nM | 6300 nM | 
CN1CCc2ccc3c4c2[C@H]1Cc1cccc(c1-4)[C@@H]3N |  |  | Ki [3]: 360 nM; Ki [1]: 18 nM
COc1cc2c3c(c1OC)Cc1ccccc1CC3N(Cc1ccccc1)CC2 (stereo unspecified) | 4900 nM | > 60000 nM | 
COc1cc2c(cc1O)C[C@@H]1NCCc3cc(O)c(OC)c-2c31 [NORBOLDINE] |  |  | IC50 (D(1A) dopamine receptor): 2500 nM; IC50 (D(2) dopamine receptor): 6800 nM
COc1cc2c(cc1OC)Oc1c(O)ccc3c1[C@H](C2)N(C)CC3 [CULARIDINE] |  |  | IC50 (D(1A) dopamine receptor): 800 nM; IC50 (D(2) dopamine receptor): 300 nM
COc1cc2c(cc1OC)-c1c(OC)c(O)c(Br)c3c1[C@H](C2)N(C)CC3 | 610 nM | 15 nM | 
Oc1ccc2c(c1)C[C@H]1NCCc3cc4c(c-2c31)OCO4 [ANOLOBINE] |  |  | IC50 (D(1A) dopamine receptor): 36000 nM; IC50 (D(2) dopamine receptor): 15000 nM
Cc1ccc2c(c1O)-c1cccc3c1[C@@H](C2)N(C)CC3 | 1070 nM |  | 
COc1cc2c(cc1OC)-c1c(OC)c(OC)c(I)c3c1[C@H](C2)N(C)CC3 | 4500 nM | 2110 nM | 
COc1cc2c(cc1OC)-c1c(OC)c(O)c(I)c3c1[C@H](C2)N(C)CC3 | 830 nM | 6 nM | 
CCCN1CCc2cc(O)c(O)c3c2C1Cc1ccccc1C3 (stereo unspecified) | 6700 nM | 22300 nM | 
CCN1CCc2cc(O)c(O)c3c2C1Cc1ccccc1C3 (stereo unspecified) | 16000 nM | 8300 nM | 
COc1cc2c(cc1O)C[C@H]1c3c(c(Br)c(O)c(OC)c3-2)CCN1C [3-BROMOBOLDINE] | 740 nM | 49 nM | 

Second part, led by results:

Ki (D(2) dopamine receptor) | Ki (D(1A) dopamine receptor) | SMILES | other results
24 nM |  | CN1CCc2ccc3c4c2[C@H]1Cc1cccc(c1-4)[C@H]3O | Ki [1]: 14 nM
> 10000 nM |  | CCN1CCc2cccc3c2C1Cc1cc(O)ccc1O3 (stereo unspecified) | 
26 nM |  | CN1CCc2ccc3c4c2[C@H]1Cc1cccc(c1-4)[C@]3(C)O | Ki [1]: 4.3 nM
180 nM |  | CN1CCc2ccc3c4c2[C@H]1Cc1cccc(c1-4)[C@@]3(C)O | Ki [3]: 310 nM; Ki [1]: 28 nM
> 100000 nM |  | Cc1cccc(O)c1-c1cccc2c1-c1cccc3c1[C@@H](C2)N(C)CC3 (stereo in doubt; 59) | Ki [3]: 300000 nM; Ki [1]: 4.3 nM
> 10000 nM | > 10000 nM | CCCN1CCc2cccc3c2C1Cc1cc(O)ccc1O3 (stereo unspecified) | 
260 nM |  | CN1CCc2ccc3c4c2[C@H]1Cc1cccc(c1-4)[C@H]3N | Ki [3]: 140 nM; Ki [1]: 13 nM
> 100000 nM |  | Cc1cccc(O)c1-c1cccc2c1-c1cccc3c1[C@@H](C2)N(C)CC3 (stereo in doubt; 60) | Ki [3]: 49000 nM; Ki [1]: 23 nM
8200 nM | 8600 nM | COc1cc2c3c(c1)Cc1ccccc1CC3N(C)CC2 (stereo unspecified) | 
540 nM |  | CN1CCc2ccc3oc(=O)c4cccc5c4c3c2[C@H]1C5 | Ki [3]: 1150 nM; Ki [1]: 280 nM
7 nM |  | CO[C@]1(C)c2cccc3c2-c2c1ccc1c2[C@@H](C3)N(C)CC1 | Ki [3]: 17 nM; Ki [1]: 1.1 nM
270 nM | 3000 nM | CN1CCc2cc(O)cc3c2C1Cc1ccccc1O3 (stereo unspecified) | 
2500 nM |  | Cc1cccc(C#N)c1-c1cccc2c1-c1cccc3c1[C@@H](C2)N(C)CC3 (stereo in doubt; 57) | Ki [3]: 800000 nM; Ki [1]: 21 nM
8900 nM | 6400 nM | CN1CCc2cc(O)cc3c2C1Cc1ccccc1C3 (stereo unspecified) | 
210 nM |  | CN1CCc2ccc3c4c2[C@H]1Cc1cccc(c1-4)[C@@H]3O | Ki [1]: 100 nM
71 nM |  | CO[C@@]1(C)c2cccc3c2-c2c1ccc1c2[C@@H](C3)N(C)CC1 | Ki [3]: 17 nM; Ki [1]: 1.1 nM
8000 nM |  | CC(=O)N[C@H]1c2cccc3c2-c2c1ccc1c2[C@@H](C3)N(C)CC1 | Ki [3]: 720 nM; Ki [1]: 1320 nM
15000 nM | 6100 nM | CN1CCc2cc(O)c(O)c3c2C1Cc1ccccc1C3 (stereo unspecified) | 
270 nM |  | CN1CCc2ccc3c(=O)oc4cccc5c4c3c2[C@H]1C5 | Ki [3]: 2000 nM; Ki [1]: 1500 nM
83 nM |  | CN1CCc2ccc3c4c2[C@@]1(C)Cc1cccc(c1-4)C3 | Ki [3]: 41 nM; Ki [1]: 7 nM
3600 nM |  | CC(=O)N[C@@H]1c2cccc3c2-c2c1ccc1c2[C@@H](C3)N(C)CC1 | Ki [3]: 200 nM; Ki [1]: 540 nM
19 nM |  | C[C@@H]1c2cccc3c2-c2c1ccc1c2[C@@H](C3)N(C)CC1 | Ki [3]: 5.1 nM; Ki [1]: 3.3 nM
39 nM |  | C[C@H]1c2cccc3c2-c2c1ccc1c2[C@@H](C3)N(C)CC1 | Ki [3]: 31 nM; Ki [1]: 6 nM
3.8 nM | 170 nM | CN1CCc2cc(-c3ccc(O)cc3)cc3c2[C@H]1Cc1cccc(O)c1-3 | 
> 20000 nM | 7200 nM | COc1cc2c3c(c1OC)Cc1ccccc1CC3N(C)CC2 (stereo unspecified) | 
